Reference: patent publication US20130216552A1, “CRTH2 MODULATORS” (Ironwood Pharmaceuticals, Inc., priority 2010, published 2013)

Columns and labels:
CRTH2 [1] = biological target: T1, CRTH2 (Homo sapiens, UniProt Q9Y5Y4); test: DPBS CD11b Antagonist Assay; format: cell-based; settings: polymorphonuclear cells in PBS with CaCl2/MgCl2; CD11b expression in eosinophils; agonist 15R-Methyl-PGD2 (10 nM)
T1 construct: polymorphonuclear cells (0.5 ml; 10^6/ml cells) in PBS containing 0.9 mM CaCl2 and 0.5 mM MgCl2; endogenous in cells; host or cells: polymorphonuclear cells (eosinophils gated by flow cytometry)
T1 sequence (Q9Y5Y4 1-395): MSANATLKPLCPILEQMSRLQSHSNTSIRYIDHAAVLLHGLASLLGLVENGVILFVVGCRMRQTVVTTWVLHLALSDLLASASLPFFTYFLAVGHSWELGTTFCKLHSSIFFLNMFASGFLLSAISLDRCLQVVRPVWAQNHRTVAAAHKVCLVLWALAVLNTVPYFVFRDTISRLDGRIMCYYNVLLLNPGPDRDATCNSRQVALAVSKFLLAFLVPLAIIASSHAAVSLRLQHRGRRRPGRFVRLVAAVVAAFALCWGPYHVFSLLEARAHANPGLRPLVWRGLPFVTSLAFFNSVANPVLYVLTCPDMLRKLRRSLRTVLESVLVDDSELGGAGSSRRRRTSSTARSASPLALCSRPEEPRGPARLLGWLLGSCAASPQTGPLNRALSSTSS
Procedure: DPBS CD11b Antagonist Assay
The potential CRTH2 antagonist activity of certain compounds was tested using a CD11b expression assay using essentially the method described by Monneret et al. (J Pharmacol Exp Ther 304:349-55, 2003). Briefly, polymorphonuclear cells (0.5 ml; 10^6/ml cells) in PBS containing 0.9 mM CaCl2 and 0.5 mM MgCl2) were preincubated with various concentrations of test compounds at room temperature for 10 minutes before they were challenged with the agonist 15R-Methyl-PGD2 (10 nM). The incubations were terminated by the addition of ice-cold FACSFlow (BD Biosciences; Cat#342003) and centrifugation (400 g for 5 minutes at 4° C.). The cells were then incubated for 30 minutes at 4° C. with a mixture of PE-labeled mouse anti-human VLA-4 (5 μl; BD Biosciences) and FITC-labeled mouse anti-human CD11b (10 μl; Beckman Coulter). The cells were then incubated with Optilyse C (0.25 ml; Beckman Coulter) for 15 minutes, centrifuged, and then fixed in PBS (0.4 ml; calcium and magnesium free) containing 1% formaldehyde. The distribution of fluorescence intensities among 60,000 cells was measured by flow cytometry. Eosinophils were gated out on the basis of their granularity (high side scatter) and labeling with VLA-4 (PE fluorescence). CD11b was then measured in the eosinophil region on the basis of fluorescence due to FITC. All data were corrected for the value obtained for the corresponding isotope control antibody.

CRTH2 [2] = biological target: T1, CRTH2; test: Human Whole Blood CD11b Antagonist Assay; format: cell-based; settings: CD11b expression in eosinophils, agonist 15R-Methyl-PGD2 (10 nM)
Procedure: Human Whole Blood CD11b Antagonist Assay (Modified from Nicholson, et al. Pulmonary Pharmacology and Therapeutics: 20 (2007); 52-59)
The potential CRTH2 antagonist activity of certain compounds was tested in human whole blood using an assay that tests the ability of the compounds to block the CD11b expression in eosinophils by 15-R-methyl-PGD2. A CRTH2 antagonist should block CD11b expression by subsequently added 15-Methyl-PGD2. Human whole blood ([…]) was incubated at 37° C. for 10 minutes in the presence of various concentrations of test compounds before being challenged with the agonist 15R-Methyl-PGD2 (10 nM). Reactions were terminated by the addition of ice-cold PBS+0.5% BSA+2 mM EDTA (1 mL) and centrifugation (300×g for 5 minutes at 4° C.) Cells were then incubated at 4° C. for 10 min in the presence of human IgG. Cells were then incubated for 30-45 min with a mixture of PE-Cy5-labeled mouse anti-human CD16 (10 ul; BD Biosciences) and FITC-labeled mouse anti-human CD11b (10 μL; Beckman Coulter.) After rinsing (1 mL ice-cold PBS+0.5% BSA+2 mM EDTA), red blood cells were lysed by the addition of 1 mL ice-cold H2O to the cell pellet for 30 sec-1 min immediately followed by the addition of 3.5% NaCl (300 μL.) Cells were then rinsed (2×−1 ml ice cold PBS+0.5% BSA+2 m MEDTA) and fixed in PBS containing 1% formaldehyde. The distribution of fluorescence intensities was measured by flow cytometry. Eosinophils were gated out on the basis of their granularity (high side scatter) and absence of CD-16. CD11b was then measured on this eosinophil population on the basis of fluorescence due to FITC.

Question: For Cc1c(Cc2ccccc2S(=O)(=O)N2CCCC2)c2ccsc2n1CC(=O)O [Compound I-1, 2-(5-Methyl-4-(2-(pyrrolidin-1-ylsulfonyl)benzyl)-6H-thieno[2,3-b]pyrrol-6-yl)acetic acid], which IC50 (CRTH2 [1]) is on record?
Answer: < 1 nM

Question: And the IC50 (CRTH2 [2])?
Answer: 20 to 100 nM

Question: How did the IC50 (CRTH2 [1]) turn out when Cc1c(Cc2ccccc2S(=O)(=O)N2CCCC2)c2scnc2n1CC(=O)O [Compound I-2, 2-(5-Methyl-6-(2-(pyrrolidin-1-ylsulfonyl)benzyl)-4H-pyrrolo[2,3-d]thiazol-4-yl)acetic acid] was run?
Answer: 100 to 500 nM

Question: For Cc1c(Cc2ccccc2S(=O)(=O)c2ccccc2)c2ccsc2n1CC(=O)O [Compound I-3, 2-(5-Methyl-4-(2-(phenylsulfonyl)benzyl)-6H-thieno[2,3-b]pyrrol-6-yl)acetic acid], which IC50 (CRTH2 [1]) is on record?
Answer: < 1 nM

Question: And the IC50 (CRTH2 [2])?
Answer: 5 to 20 nM

Question: How did the IC50 (CRTH2 [1]) turn out when Cc1c(Cc2ccccc2S(=O)(=O)N2CCCC2)c2sccc2n1CC(=O)O [Compound I-4, 2-(5-Methyl-6-(2-(pyrrolidin-1-ylsulfonyl)benzyl)-4H-thieno[3,2-b]pyrrol-4-yl)acetic acid] was run?
Answer: 1 to 5 nM

Question: And the IC50 (CRTH2 [2])?
Answer: 20 to 100 nM

Question: With Cc1c(Cc2ccccc2S(=O)(=O)N2CCOCC2)c2scnc2n1CC(=O)O [Compound I-5, 2-(5-Methyl-6-(2-(morpholinosulfonyl)benzyl)-4H-pyrrolo[2,3-d]thiazol-4-yl)acetic acid] as the compound, how does the IC50 (CRTH2 [1]) read?
Answer: 3000 to 5000 nM

Question: And the IC50 (CRTH2 [2])?
Answer: 3000 to 5000 nM

Question: Cc1c(Cc2ccccc2S(=O)(=O)N2CCOCC2)c2ccsc2n1CC(=O)O [Compound I-6, 2-(5-Methyl-4-(2-(morpholinosulfonyl)benzyl)-6H-thieno[2,3-b]pyrrol-6-yl)acetic acid] was tested. Which IC50 (CRTH2 [1]) did it give?
Answer: < 1 nM

Question: And the IC50 (CRTH2 [2])?
Answer: 5 to 20 nM
